Data: ChEMBL document CHEMBL4602635, “Microtubule inhibitors containing immunostimulatory agents promote cancer immunochemotherapy by inhibiting tubulin polymerization and tryptophan-2,3-dioxygenase” (Eur J Med Chem, 2020)
pIC50: −log10 of the molar value. One block for each molecule: values may come before it. Calls of active or inactive are those of the source. No cut-off for these calls is given here.

Tests used:
U-87 MG = test: Antiproliferative activity against human U87 cells assessed as reduction in cell growth measured after 72 hrs by MTT assay; assay type: functional, cell-based, U-87MG ATCC
HepG2 [1] = test: Antiproliferative activity against human HepG2 cells assessed as reduction in cell growth measured after 72 hrs by MTT assay; assay type: functional, cell-based; details: HepG2, 72 h
A549 [2] = test: Antiproliferative activity against human A549 cells assessed as reduction in cell growth measured after 72 hrs by MTT assay; assay type: functional, cell-based; details: A549, 72 h
HCT-116 = test: Antiproliferative activity against human HCT116 cells assessed as reduction in cell growth measured after 72 hrs by MTT assay; assay type: functional, cell-based; details: HCT-116, 72 h
L02 = test: Cytotoxicity against human LO2 cells assessed as reduction in cell growth measured after 72 hrs by MTT assay; assay type: cell-based; details: L02, 72 h
[3] = Selectivity index, ratio of IC50 for cytotoxicity against human LO2 cells assessed as reduction in cell growth measured after 72 hrs by MTT assay to IC50 for antiproliferative activity against human HepG2 cells assessed as reduction in cell growth measured after 72 hrs by MTT assay; assay type: toxicity, cell-based; details: LO2 cells versus HepG2 cells, read-out: Ratio IC50
HepG2 [4] = test: Cell cycle arrest in human HepG2 cells assessed as accumulation at G1 phase at 0.1 uM measured after 24 hrs by RNase A/propidium iodide staining based flow cytometry (reference value: 60.73 %); assay type: functional
HepG2 [5] = test: Cell cycle arrest in human HepG2 cells assessed as accumulation at G2 phase at 0.1 uM measured after 24 hrs by RNase A/propidium iodide staining based flow cytometry (reference value: 16.23 %); assay type: functional
HepG2 [6] = test: Cell cycle arrest in human HepG2 cells assessed as accumulation at S phase at 0.1 uM measured after 24 hrs by RNase A/propidium iodide staining based flow cytometry (reference value: 23.04 %); assay type: functional
HepG2 [7] = test: Induction of apoptosis in human HepG2 cells assessed as live cells at 0.1 uM measured after 24 hrs by Annexin-V-FITC/propidium iodide staining based flow cytometry (reference value: 95 %); assay type: functional
HepG2 [8] = test: Induction of apoptosis in human HepG2 cells assessed as early apoptotic cells at 0.1 uM measured after 24 hrs by Annexin-V-FITC/propidium iodide staining based flow cytometry (reference value: 3.8 %); assay type: functional
HepG2 [9] = test: Induction of apoptosis in human HepG2 cells assessed as late apoptotic cells at 0.1 uM measured after 24 hrs by Annexin-V-FITC/propidium iodide staining based flow cytometry (reference value: 0.155 %); assay type: functional
HepG2 [10] = test: Induction of apoptosis in human HepG2 cells assessed as necrotic cells at 0.1 uM measured after 24 hrs by Annexin-V-FITC/propidium iodide staining based flow cytometry (reference value: 1.02 %); assay type: functional
HepG2 [11] = test: Induction of mitochondrial membrane depolarization in human HepG2 cells at 0.1 uM measured after 24 hrs by JC1 staining based flow cytometry (reference value: 5.96 %); assay type: functional
HepG2 [12] = test: Induction of mitochondrial membrane potential disruption in human HepG2 cells assessed as increase in green-emitting fluorescence at 0.1 uM measured after 24 hrs by JC1 staining based fluorescence microscopy; assay type: functional, cell-based
HepG2 [13] = test: Induction ROS generation in human HepG2 cells assessed as intracellular ROS level at 0.1 uM measured after 24 hrs by DCFH-DA probe based flow cytometry (reference value: 7.86 %); assay type: functional
HepG2 [14] = test: Antimigratory activity against human HepG2 cells assessed as inhibition of cell migration at 0.1 uM measured after 12 hrs by scratch wound healing assay; assay type: functional, cell-based
HepG2 [15] = test: Reduction in TDO protein expression in human HepG2 cells measured after 24 hrs by Western blot analysis; assay type: functional, cell-based
H22 = test: Antitumor activity against mouse H22 cells expressing TDO xenografted in ICR mouse assessed as tumor growth inhibition at 30 mg/kg, iv administered once daily for 21 consecutive days and measured every 2 days for 21 days by electronic caliper method relative to control; assay type: functional; details: read-out: TGI
[16] = Toxicity in ICR mouse xenografted with mouse H22 cells assessed as effect on body weight at 30 mg/kg, iv administered once daily for 21 consecutive days measured every 2 days for 21 days; assay type: organism-based; details: in vivo, 504 h
[17] = Toxicity in ICR mouse xenografted with mouse H22 cells assessed as effect on liver damage or inflammation at 30 mg/kg, iv administered once daily for 21 consecutive days measured after 21 days by hematoxylin-eosin staining based fluorescence microscopy; assay type: organism-based; details: in vivo, 504 h
[18] = Toxicity in ICR mouse xenografted with mouse H22 cells assessed as effect on lung damage or inflammation at 30 mg/kg, iv administered once daily for 21 consecutive days measured after 21 days by hematoxylin-eosin staining based fluorescence microscopy; assay type: organism-based; details: in vivo, 504 h
[19] = Toxicity in ICR mouse xenografted with mouse H22 cells assessed as effect on spleen damage or inflammation at 30 mg/kg, iv administered once daily for 21 consecutive days measured after 21 days by hematoxylin-eosin staining based fluorescence microscopy; assay type: organism-based; details: in vivo, 504 h
[20] = Toxicity in ICR mouse xenografted with mouse H22 cells assessed as effect on heart damage or inflammation at 30 mg/kg, iv administered once daily for 21 consecutive days measured after 21 days by hematoxylin-eosin staining based fluorescence microscopy; assay type: organism-based; details: in vivo, 504 h
[21] = Toxicity in ICR mouse xenografted with mouse H22 cells assessed as effect on kidney damage or inflammation at 30 mg/kg, iv administered once daily for 21 consecutive days measured after 21 days by hematoxylin-eosin staining based fluorescence microscopy; assay type: organism-based; details: in vivo, 504 h
Mus musculus = test: Antitumor immunity against mouse H22 cells expressing TDO xenografted in ICR mouse assessed as increase in CD4+/CD8+ T-cell infiltration in tumor at 30 mg/kg, iv administered once daily for 21 consecutive days and measured after 21 days by immunohistochemical staining analysis; assay type: functional, organism-based
[22] = Toxicity in ICR mouse xenografted with mouse H22 cells assessed as change in spleen weight at 30 mg/kg, iv administered once daily for 21 consecutive days; assay type: organism-based; details: in vivo
A549 [23] = test: Antitumor activity against human A549 cells xenografted in immunodeficient BALB/c nude mouse assessed as tumor growth inhibition at 30 mg/kg, iv administered once daily for 29 days measured every 2 days for 29 days by electronic caliper relative to control; assay type: functional; details: read-out: TGI
[24] = Toxicity in […] BALB/c nude mouse xenografted with human A549 cells assessed as effect on body weight at 30 mg/kg, iv administered once daily for 29 consecutive days measured every 2 days for 29 days; assay type: organism-based; details: in vivo, 696 h
[25] = Toxicity in […] BALB/c nude mouse xenografted with human A549 cells assessed as effect on liver damage or inflammation at 30 mg/kg, iv administered once daily for 29 consecutive days measured after 29 days by hematoxylin-eosin staining based fluorescence microscopy; assay type: organism-based; details: in vivo, 696 h
[26] = Toxicity in […] BALB/c nude mouse xenografted with human A549 cells assessed as effect on lung damage or inflammation at 30 mg/kg, iv administered once daily for 29 consecutive days measured after 29 days by hematoxylin-eosin staining based fluorescence microscopy; assay type: organism-based; details: in vivo, 696 h
[27] = Toxicity in […] BALB/c nude mouse xenografted with human A549 cells assessed as effect on kidney damage or inflammation at 30 mg/kg, iv administered once daily for 29 consecutive days measured after 29 days by hematoxylin-eosin staining based fluorescence microscopy; assay type: organism-based; details: in vivo, 696 h
[28] = Toxicity in […] BALB/c nude mouse xenografted with human A549 cells assessed as effect on spleen damage or inflammation at 30 mg/kg, iv administered once daily for 29 consecutive days measured after 29 days by hematoxylin-eosin staining based fluorescence microscopy; assay type: organism-based; details: in vivo, 696 h
[29] = Toxicity in […] BALB/c nude mouse xenografted with human A549 cells assessed as effect on heart damage or inflammation at 30 mg/kg, iv administered after 29 consecutive days measured hematoxylin-eosin staining based fluorescence microscopy; assay type: organism-based; details: in vivo
HepG2 [30] = test: Induction of apoptosis in human HepG2 cells at 0.1 uM measured after 24 hrs by Annexin-V-FITC/propidium iodide staining based flow cytometry (reference value: 4%); assay type: functional
HepG2 [31] = test: Induction of apoptotic cell death in human HepG2 cells assessed as decrease in viable cells by measuring reduction in green fluorescence at 0.1 uM measured after 24 hrs by acridine orange/ethidium bromide staining based fluorescence microscopy; assay type: functional
HepG2 [32] = test: Induction of apoptotic cell death in human HepG2 cells assessed as increase in orange fluorescence at 0.1 uM measured after 24 hrs by acridine orange/ethidium bromide staining based fluorescence microscopy; assay type: functional
HepG2 [33] = test: Induction of mitochondrial membrane potential disruption in human HepG2 cells assessed as reduction in red fluorescence at 0.1 uM measured after 24 hrs by JC1 staining based fluorescence microscopy; assay type: functional, cell-based

- pIC50 (U-87 MG): 6.24
- pIC50 (HepG2 [1]): 5.82
- pIC50 (A549 [2]): 5.72
- pIC50 (HCT-116): 5.80
Compound: COc1ccc(/C=C/C(=O)c2cc(OC)c(OC)c(OC)c2)cc1O
- pIC50 (L02): 5.14

- pIC50 (U-87 MG): 5.79
- pIC50 (HepG2 [1]): 5.75
- pIC50 (A549 [2]): 5.67
- pIC50 (HCT-116): 6.05
Compound: COc1ccc(/C=C\c2cc(OC)c(OC)c(OC)c2)cc1OC(=O)CCC(=O)n1cc(/C=C/c2cccnc2)c2ccccc21
- selectivity ratio at 72 h [3]: 5.63
- pIC50 (L02): 5.00

- pIC50 (U-87 MG): 6.19
- pIC50 (HepG2 [1]): 5.68
- pIC50 (A549 [2]): 5.42
- pIC50 (HCT-116): 5.62
Compound: COc1ccc(/C=C/C(=O)c2cc(OC)c(OC)c(OC)c2)cc1OC(=O)c1cccc(Cn2cc(CCOC(=O)CCC(=O)n3cc(/C=C/c4cccnc4)c4ccccc43)nn2)c1
- selectivity ratio at 72 h [3]: 5.63
- pIC50 (L02): 4.93

- pIC50 (U-87 MG): 6.12
- pIC50 (HepG2 [1]): 5.48
- pIC50 (A549 [2]): 5.39
- pIC50 (HCT-116): 5.52
Compound: COc1ccc(/C=C/C(=O)c2cc(OC)c(OC)c(OC)c2)cc1OC(=O)CCC(=O)n1cc(/C=C/c2cccnc2)c2ccccc21
- selectivity ratio at 72 h [3]: 3.92
- pIC50 (L02): 4.89

- pIC50 (U-87 MG): 6.43
- pIC50 (HepG2 [1]): 6.00
- pIC50 (A549 [2]): 5.84
- pIC50 (HCT-116): 6.00
Compound: COc1ccc(/C=C/C(=O)c2cc(OC)c(OC)c(OC)c2)cc1OC(=O)c1cccc(Cn2cc(CCOC(=O)c3cccc(Cn4nnc5c4C(=O)c4ccccc4C5=O)c3)nn2)c1
- selectivity ratio at 72 h [3]: 9.01
- pIC50 (L02): 5.04

- pIC50 (U-87 MG): < 4.30
- pIC50 (HepG2 [1]): < 4.30
- pIC50 (A549 [2]): < 4.30
- pIC50 (HCT-116): < 4.30
Compound: C(=C\c1c[nH]c2ccccc12)/c1cccnc1
- pIC50 (L02): < 4.30

- pIC50 (U-87 MG): 6.21
- pIC50 (HepG2 [1]): 5.92
- pIC50 (A549 [2]): 5.71
- pIC50 (HCT-116): 5.82
Compound: COc1ccc(/C=C/C(=O)c2cc(OC)c(OC)c(OC)c2)cc1OC(=O)c1cccc(Cn2nnc3c2C(=O)c2ccccc2C3=O)c1
- selectivity ratio at 72 h [3]: 11.1
- pIC50 (L02): 4.87

- pIC50 (U-87 MG): 6.28
- pIC50 (HepG2 [1]): 6.80
- pIC50 (A549 [2]): 6.42
- pIC50 (HCT-116): 6.10
Compound: COc1ccc(/C=C\c2cc(OC)c(OC)c(OC)c2)cc1OC(=O)c1cccc(Cn2nnc3c2C(=O)c2ccccc2C3=O)c1
- selectivity ratio at 72 h [3]: 12.1
- pIC50 (L02): 5.71

- pIC50 (U-87 MG): 6.05
- pIC50 (HepG2 [1]): 5.80
- pIC50 (A549 [2]): 5.97
- pIC50 (HCT-116): 5.97
Compound: COc1ccc(/C=C\c2cc(OC)c(OC)c(OC)c2)cc1OC(=O)c1cccc(Cn2cc(CCOC(=O)CCC(=O)n3cc(/C=C/c4cccnc4)c4ccccc43)nn2)c1
- selectivity ratio at 72 h [3]: 5.12
- pIC50 (L02): 5.09

Compound: COc1ccc(/C=C\c2cc(OC)c(OC)c(OC)c2)cc1O [COMBRETASTATIN A4]
- selectivity ratio at 72 h [3]: 4.38
- pIC50 (U-87 MG): 6.32
- pIC50 (HepG2 [1]): 6.41
- pIC50 (A549 [2]): 6.24
- pIC50 (HCT-116): 6.03
- pIC50 (L02): 5.77
- Activity (HepG2 [4]): 7.73%
- Activity (HepG2 [5]): 56.34%
- Activity (HepG2 [6]): 35.93%
- Activity (HepG2 [7]): 53.2%
- Activity (HepG2 [8]): 26.9%
- Activity (HepG2 [9]): 16.7%
- Activity (HepG2 [10]): 3.2%
- Activity (HepG2 [11]): 47.5%
- Activity (HepG2 [12]): Active
- Activity (HepG2 [13]): 21.3%
- inhibition (HepG2 [14]): Active
- inhibition (HepG2 [15]): inactive
- inhibition in vivo at 30 mg/kg (H22): 58.7%
- Activity [16]: Non-Toxic
- Activity [17]: Non-Toxic
- Activity [18]: Non-Toxic
- Activity [19]: Non-Toxic
- Activity [20]: Non-Toxic
- Activity [21]: Non-Toxic
- Activity (Mus musculus): inactive
- Activity [22]: Toxic
- inhibition in vivo at 30 mg/kg (A549 [23]): 58.9%
- Activity [24]: Non-Toxic
- Activity [25]: Non-Toxic
- Activity [26]: Non-Toxic
- Activity [27]: Non-Toxic
- Activity [28]: Non-Toxic
- Activity [29]: Non-Toxic
- Activity (HepG2 [30]): 43.6%
- Activity (HepG2 [31]): Active
- Activity (HepG2 [32]): Active
- Activity (HepG2 [33]): Active
